Experimental findings from PubChem BioAssay (NCI) are described below.

Assay in all cases: growth of human tumour cells (NCI), 48 h
The subject of test [1] is A549 NSCLC.
Test [2] has as its system CCRF-CEM leukemia.
The subject of test [3] is HCT-15 colon.
The subject of test [4] is SK-MEL-28 melanoma.
Test [5] has as its system HL-60(TB) leukemia.
Test [6] concerns MDA-N.
For test [7], the system named is SW-620 colon.
Test [8] deals with SK-OV-3 ovarian.
The subject of test [9] is RPMI-8226 leukemia.
The subject of test [10] is SK-MEL-2 melanoma.

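How tested: cells in 96-well plates exposed to compound for 48 hours at five concentrations. TGI is the concentration that stops growth completely.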

With `CC1(C)C(=O)C2(OS(=O)(=O)C(F)(F)F)CCC1C2` (stereo not given), the TGI in [1], in [2], in test [3], in test [4], in [5] and in test [6] was greater than 100 µM each time. The TGI in test [7], in test [8], in [9] and in test [10] was greater than 100 µM throughout.

For the compound `COC(=O)c1ccc(CCc2cc(O)c(Br)cc2O)cc1`, the TGI in [1] came to 50.5 µM; in test [2] it was 5.78 µM; in [3] it was 26.1 µM; in test [4] it was 34.4 µM; in test [5] it was 4.65 µM; in [6], 30 µM. Moreover, the TGI was 30.5 µM in [7], greater than 62.5 µM in test [8], 92.2 µM in test [9] and 39.1 µM in test [10].

Turning to `N=c1oc2ccc(Cl)cc2cc1C(=O)NCc1ccccc1`, the TGI in test [1] is greater than 100 µM; in test [2] it was greater than 54 µM; in test [3], greater than 100 µM; in test [4] it was greater than 100 µM; in [5], 36.8 µM; in [6] it was greater than 100 µM. Also, the TGI in test [7], in test [8], in test [9] and in test [10] was greater than 100 µM each time.

`Cc1ccc2cccc3c2c1CC1(C3=O)S(=O)(=O)OCCOS1(=O)=O`: the TGI in [1], in test [2], in test [3], in test [4], in test [5] and in test [6] was greater than 100 µM each time. Moreover, the TGI in [7], in test [8], in test [9] and in [10] was greater than 100 µM each time.

`COc1ccc(C(C#N)NCCCCCCNC(C#N)c2ccc(OC)cc2)cc1` (stereo not given): the TGI in [1], in [2], in [3], in test [4], in test [5] and in [6] was greater than 100 µM in each case. The TGI in test [7], in test [8], in test [9] and in [10] was greater than 100 µM throughout.

As to `OCCN=C1c2ccccc2C2C(c3ccccc31)C1c3ccccc3C(=NCCO)c3ccccc3C21` (stereo not given), the TGI in [1] stood at 93 µM; in test [2], 35.9 µM; in test [3] it was 63.9 µM; in test [4] it was 36.4 µM; in test [5], 47.2 µM; in test [6] it was 31.3 µM. The TGI in [7] is greater than 100 µM; in test [8] it was 61.5 µM; in test [9], 37.2 µM; in test [10] it was 30.5 µM.

`COC1(OC)C2(Cl)C(Cl)=C(Cl)C1(Cl)C1COCC12` (stereo not given): the TGI in test [1] was greater than 100 µM; in test [2], greater than 100 µM; in test [3] it was greater than 100 µM; in test [4] it was greater than 55.4 µM; in [5], greater than 100 µM; in test [6], greater than 100 µM. The TGI in test [7], in [8], in test [9] and in test [10] was greater than 100 µM in each case.

As for `COc1ccccc1N=N/C(=N/NC(=O)c1ccc(C)cc1)c1ccc(N(CCC#N)CCC#N)cc1OC`, the TGI in test [1] is greater than 100 µM; in test [2], 40.9 µM; in test [3] it was greater than 100 µM; in test [4], greater than 100 µM; in test [5], 26.5 µM; in test [6], 53.5 µM. For the same compound, the TGI is greater than 100 µM in test [7], greater than 100 µM in test [8], 33.5 µM in test [9] and 39.5 µM in test [10].

For the compound `CCOP(=O)(OCC)/C(C#N)=C/c1cccn1N(C)C`, the TGI in [1], in test [2], in test [3], in [4], in test [5] and in test [6] was greater than 100 µM throughout. In addition, the TGI in test [7], in test [8], in test [9] and in test [10] was greater than 100 µM throughout.

Turning to `CC(=O)c1c(-c2ccccc2)c(-c2ccc(OCCN(C)C)cc2)n2ccccc12`, the TGI in [1] came out at 50.7 µM; in test [2], 61.1 µM; in test [3], 22.7 µM; in [4], 28.6 µM; in test [5] it was 36.3 µM; in test [6] it was 29.2 µM. Further, the TGI in test [7] amounted to 32 µM; in test [8] it was 38.2 µM; in test [9], 60.2 µM; in [10], 33.3 µM.

For `COc1cc(C2SCC(=O)N2c2ccc(Cl)cc2)cc(I)c1O` (stereo not given), the TGI in [1], in test [2], in test [3], in test [4], in [5] and in test [6] was greater than 100 µM in each case. The TGI in [7], in [8], in [9] and in [10] was greater than 100 µM throughout.

In the case of `CC(C)(C)OC(=O)NC(Cc1ccc(OCc2ccccc2)cn1)C(=O)N1CCSCC1` (stereo not given), the TGI is greater than 100 µM in [1]; greater than 100 µM in test [2]; greater than 100 µM in test [3]; greater than 100 µM in [4]; 81.1 µM in test [5]; greater than 100 µM in test [6]. Moreover, the TGI is greater than 100 µM in test [7], greater than 100 µM in test [8], 59.1 µM in [9] and greater than 100 µM in [10].

As to `O=C1OC[C@@H]2Cc3c([nH]c4ccccc34)[C@@H](c3cc(O)c(O)c(O)c3)N12`, the TGI in test [1] is greater than 100 µM; in [2], 54.3 µM; in test [3], greater than 100 µM; in test [4] it was 42.9 µM; in [5], 15 µM; in test [6] it was 82.5 µM. In addition, the TGI in test [7] was 53.4 µM; in test [8], greater than 100 µM; in [9] it was 65.8 µM; in [10], 18.9 µM.
